Assay results from patent US20060078598A1, “Animal feed containing an encapsulated ingredient” (CAN Technologies, Inc., priority 2002, published 2006).
Read-outs that look alike come from different tables or passages of the source.

Experiments:
[1] = feed formula with circa 1.0 wt. % sample, contacted with deionized water
Source text: Equal levels of each sample (circa 1.0 wt. % based on total feed weight) were introduced into a feed formula that was placed in a vessel and contacted with deionized water.

[2] = deionized water
Source text: Equal levels of each sample (circa 1.0 wt. % of methionine based on total feed weight) were introduced into a feed formula that was placed in a vessel and exposed to deionized water for an hour.

## CSCC[C@H](N)C(=O)O [Uncoated methionine, methionine]
[1]
  LEACHING LOSS AFTER 30 MINUTES: 40%
[2]; after about 1 minute
  percent loss of methionine: about 15 wt. %
[2]; after about 5 minutes
  percent loss of methionine: about 22 wt. %
[2]; after about 15 minutes
  percent loss of methionine: about 30 wt. %
[2]; after about 60 minutes
  percent loss of methionine: about 43 wt. %
